Measurements: US20170066795A1, “SOLID PRODRUG FORMS OF 2'-CHLORO-2'-METHYL URIDINE FOR HCV” (IDENIX PHARMACEUTICALS LLC, priority 2014, published 2017)
In brackets after ≈: the same amount, converted by molar mass. Entries after “also recorded” stand apart in the source; their conditions may differ.

Assays:
Format in all cases: physicochemical
[1] = Solubility screen with crystalline material (Form I)
Experimental: An extensive range of experiments were carried out using either Compound I crystalline Form I or amorphous Compound I as the input material. A set of 32 solvents with diverse properties (including 3 solvent:water mixtures 95:5 v:v) were selected. All solvents were used for the solubility screen but for the subsequent screens a selection of these solvents were used depending on the solubility.
Compound I Form I was weighed into 2 mL vials and treated with increasing amounts of solvent. Solvent was added in 10 or 20 volume portions until the solid dissolved or a maximum volume of 2 mL (80 volumes) had been reached. After each addition of solvent the samples were warmed to 50° C. […] After 3 days of maturation samples were equilibrated to room temperature and small amounts of each sample were filtered through glass frits under vacuum and were analyzed by XRPD. […]
Solutions were stirred at 50° C. for 1 hour then were cooled to 5° C. using a linear cooling rate of 0.1° C./min. […] Observations were made and any solids were analyzed by XRPD as above and solutions were cooled in the freezer for 3 days. Solids were then analyzed by XRPD and samples that remained solutions were left to evaporate slowly through loosened lids at ambient conditions. When solids were produced they were analyzed by XRPD.

[2] = Kinetic solubility of amorphous Compound I; conditions: kinetic from dmso stock; stated in embodiment text only
[3] = Static stability of amorphous Compound I (ambient conditions; 40° C./75% RH)
Experimental: Full characterization was carried out on a 100 mg scale test batch (lyophilised from 100% t-butanol).

SMILES	solubility in most primary alcohols [1]	solubility kinetic [2] [µg/mL]	Static Stability at 40° C./75% RH: time to deliquesce to an oil/gum ([3]; 40° C./75% RH)	Static Stability at 40° C./75% RH: solid form ([3]; 40° C./75% RH, 1, 15 and 44 days)	Static Stability at ambient conditions ([3]; solid form on storage, lyophilised batch)
CC(C)OC(=O)[C@@H](C)N[P@@](=O)(OC[C@H]1O[C@@H](n2ccc(=O)[nH]c2=O)[C@](C)(Cl)[C@@H]1O)Oc1ccccc1 [Compound I crystalline Form I]	highly soluble	–	–	–	–
CC(C)OC(=O)[C@@H](C)N[P@@](=O)(OC[C@H]1O[C@@H](n2ccc(=O)[nH]c2=O)[C@](C)(Cl)[C@@H]1O)Oc1ccccc1 [Amorphous Compound I]	–	~2000 (≈ 3.66 mM)	Deliquesces to an oil/gum in <1 hour,	remains amorphous after 1 day,; also recorded: after 15 days amorphous but hint of a peak at 6.5 °20; also recorded: after 44 days remains amorphous except for peak at 6.5 °20	Remains amorphous after 22 days
